The target of this assay is T1, CARF (hCARF; collaborator of ARF) (Homo sapiens, UniProt Q9NXV6).
T1 construct: gene CDKN2AIP; full length; site Cys-516 in C-terminal fragment C1
T1 sequence (Q9NXV6 2-580): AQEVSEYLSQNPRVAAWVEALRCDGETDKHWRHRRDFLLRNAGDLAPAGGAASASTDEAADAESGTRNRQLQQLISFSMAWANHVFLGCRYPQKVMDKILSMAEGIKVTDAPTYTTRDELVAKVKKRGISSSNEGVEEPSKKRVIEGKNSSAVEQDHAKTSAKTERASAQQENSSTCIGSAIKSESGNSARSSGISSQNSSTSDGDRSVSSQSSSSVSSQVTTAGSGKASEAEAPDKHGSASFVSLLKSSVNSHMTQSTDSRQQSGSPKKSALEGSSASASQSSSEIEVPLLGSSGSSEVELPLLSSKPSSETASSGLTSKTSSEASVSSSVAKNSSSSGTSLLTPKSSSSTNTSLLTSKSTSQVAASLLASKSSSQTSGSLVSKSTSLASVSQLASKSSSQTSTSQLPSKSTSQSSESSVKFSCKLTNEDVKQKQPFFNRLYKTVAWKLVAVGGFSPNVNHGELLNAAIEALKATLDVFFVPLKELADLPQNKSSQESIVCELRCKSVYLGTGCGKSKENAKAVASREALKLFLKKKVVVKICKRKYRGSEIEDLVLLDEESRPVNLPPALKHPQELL
The assay is described as follows: competition with S-614 for bead-bound His6-hCARF. The format is binding. The note with it: 15 uM NC043 against 7.5 uM S-614, 1 h, 4 C; covalent (Cys-516).

In the case of `C=C1C(=O)[C@]23CC[C@H]1C[C@H]2[C@@]12CCC[C@@](C)(COC1=O)[C@H]2C[C@H]3O` [NC043], the “competition with S-614 for bead-bound His6-hCARF” value is “S-614 directly binds to CARF, which could be competed off by NC043”.

Source of the values: article PMC5387711 (Cell Discovery, 2017).
